The subject of one data set is male Sprague-Dawly rats. Kind of data set: antiulcer activity, pylorus-ligated fasted rats, samples given by gastric tube, stomach inspected for ulcers 21 hours later. In kind it is in vivo, Sprague-Dawly rat. The following applies: for ED50: Rattus norvegicus, po, pylorus-ligated rats, 21 hours, figures in parenthesis indicate confidence limit; for b)/a) (ED50 diarrhea / ED50 antiulcer): ratio of diarrhea ED50 to antiulcer ED50, p.o., rats. Here is the method: Each of ten male Sprague-Dawly rate, 12 weeks old, in one group was isolated in a cage with a large mesh wire net at the bottom during experimental period and prevented from coprophagia. During this period the animals were completely fasted for 48 hours and water was provided only for 32 hours from the beginning. The animal was anesthetized with ether, the pylorus was ligated through a short midline incision. The samples were administered with a gastric tube immediately after the ligation. The animals were sacrificed 21 hours later with chloroform and their abdomens were widely opened to take out the stomach. The stomach was opened for inspection of ulcers.

Data set [1] can be described thus: diarrhea activity, fasted rats, samples given by gastric tube, occurrence of diarrhea observed in the following 24 hours. On the set-up: species or system Sprague-Dawly rat. The following applies: rat, in vivo, po, observed 24 hours, figures in parenthesis indicate confidence limit, read-out: ED50 diarrhea activity. The method, then: Each of five male Sprague-Dawly rats, 12 weeks old, in one group was fasted for 24 hours.

The conditions of data set [2]: Prostaglandins, 5, (5) 455-463 (1974); cited from earlier work.
For data set [3] the following is noted: in vivo; cited from earlier work.

We go through three molecules from patent US4058665A, “Novel 3,15-dilower alkyl PGE2 derivatives” (Yamanouchi Pharmaceutical Co., Ltd., priority 1975, dated 1977).

For `CCCCC[C@@](C)(O)/C=C/[C@H]1[C@H](O)CC(=O)[C@@H]1C/C=C\CCCC(=O)OC` [A, 11α, 15(R)-dihydroxy-15-methyl-9-oxo-5(cis),13(trans)-prostadienoic acid methyl ester], in the data set on male Sprague-Dawly rats, the ED50 – broadly, the midpoint of the dose-response relation – is 0.098 mg/kg and the “b)/a) (ED50 diarrhea / ED50 antiulcer)” value is given as 1.2. Further, in data set [1], the TD50 at 24 h turned out to be 0.12 mg/kg. Besides, the “anti-ulcer activity, in words” value in data set [2] is on record as “strong anti-ulcer activity”. Also, the “diarrhea as a side effect, in words” value in data set [3] is listed as “very severe diarrhea”.

`CCCCC[C@@](C)(O)/C=C/[C@H]1[C@H](O)CC(=O)[C@@H]1C/C=C\CC(C)CC(=O)OC` (stereo partly drawn) [Compound C, 11α, 15(R)-dihydroxy-3,15-dimethyl-9-oxo-5(cis), 13(trans)-prostadienoic acid methyl ester]: in the data set with male Sprague-Dawly rats, the ED50 was determined as 0.2 mg/kg and the “b)/a) (ED50 diarrhea / ED50 antiulcer)” value worked out at 6.0. The TD50 at 24 h in data set [1] came out at 1.2 mg/kg.

For `CCCCC[C@](C)(O)/C=C/[C@H]1[C@H](O)CC(=O)[C@@H]1C/C=C\CCCC(=O)OC` [B, 11α, 15(S)-dihydroxy-15-methyl-9-oxo-5(cis),13(trans)-prostadienoic acid methyl ester], in the data set with male Sprague-Dawly rats, the ED50 amounted to 0.06 mg/kg and the “b)/a) (ED50 diarrhea / ED50 antiulcer)” value was 0.8. The TD50 at 24 h in data set [1] turned out to be 0.047 mg/kg.
